Results published in publication PMC9820345, “Metal Complexes of a 5-Nitro-8-Hydroxyquinoline-Proline Hybrid with Enhanced Water Solubility Targeting Multidrug Resistant Cancer Cells” (International Journal of Molecular Sciences, 2022).
Like-named read-outs stand apart in the source and are kept apart here.

How the values were obtained:
Colo205 [1] = tested on: Colo205; parameters: method as in PMID 32500882; conditions: 72 h exposure; cited from earlier work
Colo320 [2] = tested on: Colo320; parameters: method as in PMID 32500882; conditions: cited from earlier work
HSA site I (Trp-214) = target: T1, HSA site I (Trp-214) (Homo sapiens, UniProt P02768); parameters: method as in PMID 32500882; conditions: cited from earlier work
T1 construct: purchased Sigma-Aldrich (Darmstadt, Germany) A8763
T1 sequence (P02768 25-609): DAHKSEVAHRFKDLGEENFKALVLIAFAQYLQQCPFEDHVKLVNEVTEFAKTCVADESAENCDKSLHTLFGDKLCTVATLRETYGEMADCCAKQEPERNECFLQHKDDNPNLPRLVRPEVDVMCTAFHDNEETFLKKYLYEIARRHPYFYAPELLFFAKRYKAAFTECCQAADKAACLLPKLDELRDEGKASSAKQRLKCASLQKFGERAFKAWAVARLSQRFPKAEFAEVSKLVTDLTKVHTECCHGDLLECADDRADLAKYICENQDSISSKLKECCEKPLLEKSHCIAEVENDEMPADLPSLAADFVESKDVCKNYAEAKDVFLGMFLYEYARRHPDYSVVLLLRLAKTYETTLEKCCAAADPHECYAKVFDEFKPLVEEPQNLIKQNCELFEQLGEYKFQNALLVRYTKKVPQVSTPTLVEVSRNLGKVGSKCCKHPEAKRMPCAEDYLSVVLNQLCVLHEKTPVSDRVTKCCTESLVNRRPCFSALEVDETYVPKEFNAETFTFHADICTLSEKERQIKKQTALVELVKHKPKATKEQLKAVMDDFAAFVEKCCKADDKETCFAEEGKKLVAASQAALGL

[3] = parameters: method as in earlier work; conditions: pH 7.40, cited from earlier work
HSA site II = target: T2, HSA site II (Homo sapiens, UniProt P02768); parameters: method as in PMID 32500882; conditions: cited from earlier work
T2 construct: purchased Sigma-Aldrich (Darmstadt, Germany) A8763
T2 sequence (P02768 25-609): as above

OATP1B1 = target: T3, OATP1B1 (Homo sapiens, UniProt Q9Y6L6); assay: OATP uptake assay, OATP1B1; type: cell-based; conditions: reference inhibitor; experiments not documented
T3 construct: expressed in transfected cells; host or cells: A431 epidermoid carcinoma cells
T3 sequence (Q9Y6L6 1-691): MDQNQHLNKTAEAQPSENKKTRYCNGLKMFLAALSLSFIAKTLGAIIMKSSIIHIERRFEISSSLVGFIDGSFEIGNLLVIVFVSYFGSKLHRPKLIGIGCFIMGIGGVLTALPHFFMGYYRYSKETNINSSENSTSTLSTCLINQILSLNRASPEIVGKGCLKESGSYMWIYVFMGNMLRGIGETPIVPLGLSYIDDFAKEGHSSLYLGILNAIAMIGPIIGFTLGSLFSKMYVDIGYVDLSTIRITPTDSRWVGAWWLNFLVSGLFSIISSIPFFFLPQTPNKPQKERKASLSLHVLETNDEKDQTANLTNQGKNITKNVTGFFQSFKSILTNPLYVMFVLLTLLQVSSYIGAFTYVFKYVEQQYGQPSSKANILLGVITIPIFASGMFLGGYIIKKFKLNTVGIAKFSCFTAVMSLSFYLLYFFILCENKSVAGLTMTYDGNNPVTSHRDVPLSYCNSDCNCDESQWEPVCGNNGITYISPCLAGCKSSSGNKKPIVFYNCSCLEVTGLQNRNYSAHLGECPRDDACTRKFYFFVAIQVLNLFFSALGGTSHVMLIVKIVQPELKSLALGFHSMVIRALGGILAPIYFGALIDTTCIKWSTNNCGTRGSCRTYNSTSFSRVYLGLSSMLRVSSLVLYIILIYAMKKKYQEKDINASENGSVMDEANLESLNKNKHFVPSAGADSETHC
Protocol: (§1) Cell lines: A431 cells overexpressing OATP1B1 or OATP2B1, and their mock transfected controls were generated and characterized previously. The cell lines were cultured in DMEM (Gibco, Thermofisher Scientific, Waltham, MA, USA), supplemented with 10% fetal bovine serum, 2 mM L-glutamine, 100 μg/mL streptomycin, and 100 units/mL penicillin at 37 °C and 5% CO2.
(§2) OATP uptake assay: Prior to the experiment, A431 cells (8 × 10^4/well) were seeded on 96-well plates in 200 μL cell culture medium. After 16–24 h, the cells were washed with 200 μL PBS, three times and pre-incubated with 20–200 μM HQNO2-L-Pro, or buffer without HQNO2-L-Pro for 5 min at 37 °C in 50 μL HBSS (Hank’s Balanced Salt Solution, pH 7.4; OATP1B1) or uptake buffer (pH 5.5; OATP2B1 [63]). The reaction was started by the addition of disulfopyrene (6,8-dihydroxy-1,3-pyrenedisulfonic acid disodium salt, Sigma, Darmstadt, Germany) at a final concentration of 10 μM (OATP1B1) or pyranine (8-hydroxypyrene-1,3-pyrenetrisulfonic acid trisodium salt, Sigma, Darmstadt, Germany) at a final concentration of 20 μM (OATP2B1), and the cells were further incubated at 37 °C for 10 min (OATP1B1) or 15 min (OATP2B1). The reaction was stopped by removing the supernatant after which the cells were washed three times with ice-cold PBS. Fluorescence (in 200 μL PBS) was determined using an Enspire plate reader (PerkinElmer, Waltham, MA, USA) with excitation/emission wavelengths of 460/510 nm. OATP-dependent transport was calculated by subtracting fluorescence measured in mock transfected cells. Transport activity was calculated based on the fluorescence signal in the absence (100%) of HQNO2-L-Pro. Experiments were repeated in at least three biological replicates.

OATP2B1 = target: T4, OATP2B1 (Homo sapiens, UniProt O94956); assay: OATP uptake assay, OATP2B1; type: cell-based; conditions: reference inhibitor; experiments not documented
T4 construct: expressed in transfected cells; host or cells: A431 epidermoid carcinoma cells
T4 sequence (O94956 1-709): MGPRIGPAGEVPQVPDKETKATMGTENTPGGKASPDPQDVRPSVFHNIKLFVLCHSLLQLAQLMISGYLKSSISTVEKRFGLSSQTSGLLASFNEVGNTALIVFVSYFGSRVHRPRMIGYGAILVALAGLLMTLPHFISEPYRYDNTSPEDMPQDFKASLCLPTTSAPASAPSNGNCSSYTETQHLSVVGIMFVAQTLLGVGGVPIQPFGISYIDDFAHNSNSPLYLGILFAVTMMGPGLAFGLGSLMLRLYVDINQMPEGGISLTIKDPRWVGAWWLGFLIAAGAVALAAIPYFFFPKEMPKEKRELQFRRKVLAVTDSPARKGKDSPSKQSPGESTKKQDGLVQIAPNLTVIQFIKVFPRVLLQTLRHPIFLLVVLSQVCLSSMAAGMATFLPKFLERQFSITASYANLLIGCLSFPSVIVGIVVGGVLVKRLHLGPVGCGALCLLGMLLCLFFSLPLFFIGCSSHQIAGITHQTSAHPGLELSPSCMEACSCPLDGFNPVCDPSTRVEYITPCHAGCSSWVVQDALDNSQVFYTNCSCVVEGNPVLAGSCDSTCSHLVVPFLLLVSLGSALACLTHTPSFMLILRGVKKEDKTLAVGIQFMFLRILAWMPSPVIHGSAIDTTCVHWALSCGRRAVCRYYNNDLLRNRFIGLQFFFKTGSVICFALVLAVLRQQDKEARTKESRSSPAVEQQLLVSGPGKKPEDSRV
Protocol: as §1, §2

Colo320 [4] = assay: In vitro cytotoxicity, Colo320 cells (MTT); type: cell-based, human; conditions: Homo sapiens, COLO 320; 72 h exposure
From the text: (§3) Cell lines: all cell culture reagents were obtained from Sigma-Aldrich; plasticware was purchased from Sarstedt (Nümbrecht, Germany); Human colon Colo205 (chemo-sensitive, ATCC-CCL-222) and Colo320 (Pgp/MDR1-expressing, doxorubicin-resistant, ATCC-CCL-220.1) adenocarcinoma cell lines were purchased from LGC Promochem, Teddington, UK; MES-SA and MES-SA/Dx5 uterine sarcoma cell lines were obtained from ATCC, where they were characterized by DNA fingerprinting. The expression of the Pgp efflux pump of MES-SA/Dx5 was proven by Western blot analysis in our former report, and was also reported for the Colo320 cells. The MES-SA and MES-SA/Dx5 cells used in this study were previously engineered to express the fluorescent proteins mCherry and eGFP, respectively, by lentiviral transduction.
(§4) The colon adenocarcinoma cells were cultured in RPMI 1640 medium supplemented with 10% heat-inactivated fetal bovine serum, 2 mM L-glutamine, 1 mM sodium pyruvate, and 100 mM HEPES. The cells were incubated at 37 °C, in a 5% CO2, 95% air atmosphere.
(§5) Cytotoxicity assays: The tested compounds were dissolved in PBS buffer to prepare 5 mM stock solutions, which were diluted in complete culture medium.
(§6) In the case of the Colo205 and Colo320 cells, two-fold serial dilutions were prepared in 100 μL medium. The semi-adherent colon adenocarcinoma cells were treated with Trypsin-Versene (EDTA) solution. They were adjusted to a density of 1 × 10^4 cells in 100 μL of RPMI 1640 medium and were added to each well, with the exception of the medium control wells. The final volume of the wells containing compounds and cells was 200 μL. The plates containing Colo205 and Colo320 cells were incubated at 37 °C for 72 h; at the end of the incubation period, 20 μL of 3-(4,5-dimethyl-2-thiazolyl)-2,5-diphenyl-2H-tetrazolium bromide (MTT) solution (from a stock solution of 5 mg/mL) was added to each well. After incubation at 37 °C for 4 h, 100 μL of sodium dodecyl sulfate (SDS) solution (10% in 0.01 M HCI) was added to each well, and the plates were further incubated at 37 °C overnight. Cell growth was determined by measuring the optical density (OD) at 540/630 nm with a Multiskan EX plate reader (Thermo Labsystems, Cheshire, WA, USA).
(§7) Inhibition of the cell growth (expressed as IC50: inhibitory concentration that reduces by 50% the growth of the cells exposed to the tested compounds) was determined from the sigmoid curve where 100 − ((ODsample − ODmedium control)/(ODcell control − ODmedium control)) × 100 values were plotted against the logarithm of compound concentrations. Curves for the data obtained on Colo205 and Colo320 cells were fitted by GraphPad Prism software (2021, Graphpad Software, version 7.00, San Diego, CA, USA) using the sigmoidal dose–response model (comparing variable and fixed slopes). From the MES-SA cell data, the IC50 values were calculated by our custom program, written by J. Sessler in C#. The p values were calculated by Student’s t-test. The IC50 values were always obtained from at least three independent experiments.

MES-SA = assay: In vitro cytotoxicity, MES-SA cells (fluorescent protein readout); type: cell-based, human; conditions: Homo sapiens, MES-SA; 144 h exposure
From the text: as §3
(§8) MES-SA cell lines were maintained in DMEM, supplemented with 10% fetal bovine serum, 5 mmol/L glutamine, and 50 units/mL penicillin and streptomycin. Cells were tested and resulted negative for mycoplasma contamination with the MycoAlert mycoplasma detection Kit (Lonza Group, Basel, Switzerland). One week prior to the cytotoxicity assays, Dx5 eGFP cells were selected in 500 nM doxorubicin for one passage to ensure the overexpression of P-glycoprotein.
as §5
(§9) In the case of the MES-SA and MES-SA/Dx5 cells, cell suspensions of the fluorescent cell lines were pre-mixed in a 1:1 ratio and seeded in 20 µL medium in a density of 2500 cells/well (1250 cells/well each) in a 384-well plate. After an overnight incubation, a serial dilution of the compounds was added to the plate in a final volume of 60 µL. The P-gp inhibitor tariquidar was added to the cells 15 min prior to the test compounds. After 144 h of incubation, plates were measured for the fluorescent intensity of mCherry (EX/EM: 585 nm/610 nm) and eGFP (EX/EM: 485 nm/510 nm). Cell seeding, aspiration of medium, and addition of drugs were performed by a Hamilton StarLet automated liquid handling robot.
as §7

Colo205 [5] = assay: In vitro cytotoxicity, Colo205 cells (MTT); type: cell-based, human; conditions: Homo sapiens, COLO 205; 72 h exposure
From the text: as §3, §4, §5, §6
Inhibition of the cell growth (expressed as IC50: inhibitory concentration that reduces by 50% the growth of the cells exposed to the tested compounds) was determined from the sigmoid curve where 100 − ((ODsample − ODmedium control)/(ODcell control − ODmedium control)) × 100 values were plotted against the logarithm of compound concentrations. Curves for the data obtained on Colo205 and Colo320 cells were fitted by GraphPad Prism software (2021, Graphpad Software, version 7.00, San Diego, CA, USA) using the sigmoidal dose–response model (comparing variable and fixed slopes). […]

MES-SA/Dx5 = assay: In vitro cytotoxicity, MES-SA/Dx5 cells (fluorescent protein readout); type: cell-based, human; conditions: Homo sapiens, MES-SA/Dx5; 144 h exposure
From the text: as §3, §8, §5, §9, §7

Question: What does the source list for `Cc1ccc(C(C)C)cc1.O=C(O)[C@@H]1CCC[NH+]1Cc1cc(Cl)c2ccc[n+]3c2c1[O][Ru-]3[Cl].[Cl-]` [RuCym-HQCl-L-Pro]?
Answer: IC50 (Colo205 [1]): 68 ± 11 µM; IC50 (Colo320 [2]; 72 h exposure): > 100 µM; Selectivity ratio IC50 (Colo205)/IC50 (Colo320) (Colo320 [2]; calculated from IC50 values taken from ref 12): ≤ 0.68; quenching constant logKQ' (HSA site I (Trp-214)): 5.7; log D7.4 ([3]; 24 mM chloride): +0.09 ± 0.03; log D7.4 ([3]; 100 mM chloride): +0.46 ± 0.03; DG marker displacement constant logKDG' (HSA site II): 6.1

Question: With `O=C1OC(c2ccc(O)c(S(=O)(=O)O)c2)(c2ccc(O)c(S(=O)(=O)O)c2)c2c(Br)c(Br)c(Br)c(Br)c21` [bromosulfophthalein, reference compound] as the molecule, how does the “effect on OATP1B1 transport” value (OATP1B1) read?
Answer: Its value is “inhibited the transport”.

Question: What about the “effect on OATP2B1 transport” value (OATP2B1) of the same molecule?
Answer: Its value is “inhibited the transport”.

Question: For `COc1cccc2c1C(=O)c1c(O)c3c(c(O)c1C2=O)C[C@@](O)(C(=O)CO)C[C@@H]3O[C@H]1C[C@H](N)[C@H](O)[C@H](C)O1` [doxorubicin, reference compound], which IC50 (Colo320 [4]) is on record?
Answer: The IC50 was 5.4 ± 0.9 µM.

Question: What about the IC50 (MES-SA) of the same molecule?
Answer: The IC50 was 30 ± 10 nM.

Question: And the IC50 (Colo205 [5])?
Answer: The IC50 was 710 ± 20 nM.

Question: What about the IC50 (MES-SA/Dx5) of the same molecule?
Answer: Its IC50 is 4 ± 1 µM.
